Experiments:
FL5.12/Bcl-2 cells = experiment: FL5.12/Bcl-2 cell viability assay; format: cell-based, murine; conditions: ratio of canine platelet EC50 to FL5.12/Bcl-2 EC50
Description: FL5.12 is an IL-3 dependent prolymphocytic murine cell line that undergoes apoptosis upon IL-3 withdrawal as a result of the upregulation of pro-apoptotic Bcl-2 proteins such as Bim and Puma. Stable overexpression of anti-apoptotic Bcl-2 protein (FL5.12/Bcl-2) protects against apoptosis induced by IL-3 withdrawal by sequestration of Bim and Puma. […] The ability of compounds to kill FL5.12/Bcl-2 cells upon IL-3 withdrawal is a direct measure of the compounds' ability to inhibit anti-apoptotic Bcl-2 protein function.
Wild type FL5.12/Bcl-2 overexpressing stable transfectants were cultured in RPMI-1640 supplemented with 2 mM L-glutamine, 10% FBS, 1 mM sodium pyruvate, 2 mM HEPES, 1% penicillin/streptomycin (Invitrogen), 57 μM β-ME, and 10% WEHI-3B conditioned medium (source of IL-3) and maintained at 37° C. containing 5% CO2. 1×10^6 cells/ml were washed 1×PBS and resuspended in medium not supplemented with 10% WEHI-3B for 48 hrs prior to cytotoxicity assays. Cells were then treated for an additional 24 hrs in the presence of various concentrations of the indicated compounds. Cell viability was assessed by CellTitre Glo assay (Promega Corp.) according to the manufacturer's recommendations.

GST-Bcl-2 = experiment: TR-FRET binding assay, Bcl-2; conditions: TR-FRET Ki values
Method in brief: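 Ki values come from Wang's competitive-binding equation applied to TR-FRET signal (excitation 340/35 nm; emission 520/525 nm F-Bak peptide, 495/510 nm Tb antibody). Protein, probe and antibody incubated with compound 3 h at room temperature; dilution series began at 50 μM as 2× stock in 10% DMSO.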

## O=C(NS(=O)(=O)c1ccc(NCCCN2CCCC2)c([N+](=O)[O-])c1)c1ccc(N2CCN(Cc3cc(OCCN4CCOCC4)ccc3-c3ccc(Cl)cc3)CC2)cc1Oc1ccc2[nH]ccc2c1 [Example 136, 4-(4-{[4′-chloro-4-(2-morpholin-4-ylethoxy)-1,1′-biphenyl-2-yl]methyl}piperazin-1-yl)-2-(1H-indol-5-yloxy)-N-({3-nitro-4-[(3-pyrrolidin-1-ylpropyl)amino]phenyl}sulfonyl)benzamide]
FL5.12/Bcl-2 cells
  Selectivity Ratio (Platelet EC50/FL5.12/Bcl-2 EC50): >263
GST-Bcl-2
  Binding selectivity ratio (Bcl-XL Ki/Bcl-2 Ki): 238.9

## CN1CCC(Nc2ccc(S(=O)(=O)NC(=O)c3ccc(N4CCN(CC5=C(c6ccc(Cl)cc6)CC(C)(C)CC5)CC4)cc3Oc3ccc4[nH]ccc4c3)cc2S(=O)(=O)C(F)(F)Cl)CC1 [Example 74, N-({3-{[chloro(difluoro)methyl]sulfonyl}-4-[(1-methylpiperidin-4-yl)amino]phenyl}sulfonyl)-4-(4-{[2-(4-chlorophenyl)-4,4-dimethylcyclohex-1-en-1-yl]methyl}piperazin-1-yl)-2-(1H-indol-5-yloxy)benzamide]
FL5.12/Bcl-2 cells
  Selectivity Ratio (Platelet EC50/FL5.12/Bcl-2 EC50): 1989
GST-Bcl-2
  Binding selectivity ratio (Bcl-XL Ki/Bcl-2 Ki): 1262.5

## CC1(C)CCC(CN2CCN(c3ccc(C(=O)NS(=O)(=O)c4ccc(NCCCN5CCCC5)c([N+](=O)[O-])c4)c(Oc4cccc5[nH]ccc45)c3)CC2)=C(c2ccc(Cl)cc2)C1 [Example 102, 4-(4-{[2-(4-chlorophenyl)-4,4-dimethylcyclohex-1-en-1-yl]methyl}piperazin-1-yl)-2-(1H-indol-4-yloxy)-N-({3-nitro-4-[(3-pyrrolidin-1-ylpropyl)amino]phenyl}sulfonyl)benzamide]
FL5.12/Bcl-2 cells
  Selectivity Ratio (Platelet EC50/FL5.12/Bcl-2 EC50): 996
GST-Bcl-2
  Binding selectivity ratio (Bcl-XL Ki/Bcl-2 Ki): 64.1

## CN1CCC(Nc2ccc(S(=O)(=O)NC(=O)c3ccc(N4CCN(CC5=C(c6ccc(Cl)cc6)CCCCCC5)CC4)cc3Oc3cccc4[nH]ccc34)cc2[N+](=O)[O-])CC1 [Example 146, 4-(4-{[2-(4-chlorophenyl)cyclooct-1-en-1-yl]methyl}piperazin-1-yl)-2-(1H-indol-4-yloxy)-N-({4-[(1-methylpiperidin-4-yl)amino]-3-nitrophenyl}sulfonyl)benzamide]
FL5.12/Bcl-2 cells
  Selectivity Ratio (Platelet EC50/FL5.12/Bcl-2 EC50): 145
GST-Bcl-2
  Binding selectivity ratio (Bcl-XL Ki/Bcl-2 Ki): >14.9

## CN1CCC(CNc2ccc(S(=O)(=O)NC(=O)c3ccc(N4CCN(CC5=C(c6ccc(Cl)cc6)CC(C)(C)CC5)CC4)cc3Oc3cccc4[nH]ccc34)cc2[N+](=O)[O-])CC1 [Example 105, 4-(4-{[2-(4-chlorophenyl)-4,4-dimethylcyclohex-1-en-1-yl]methyl}piperazin-1-yl)-2-(1H-indol-4-yloxy)-N-[(4-{[(1-methylpiperidin-4-yl)methyl]amino}-3-nitrophenyl)sulfonyl]benzamide]
FL5.12/Bcl-2 cells
  Selectivity Ratio (Platelet EC50/FL5.12/Bcl-2 EC50): 2262
GST-Bcl-2
  Binding selectivity ratio (Bcl-XL Ki/Bcl-2 Ki): 62.7

## CN(C)CCOc1cccc(-c2ccc(Cl)cc2)c1CN1CCN(c2ccc(C(=O)NS(=O)(=O)c3ccc(NCC4CCOCC4)c([N+](=O)[O-])c3)c(Oc3cccc4[nH]ccc34)c2)CC1 [Example 128, 4-[4-({4′-chloro-3-[2-(dimethylamino)ethoxy]-1,1′-biphenyl-2-yl}methyl)piperazin-1-yl]-2-(1H-indol-4-yloxy)-N-({3-nitro-4-[(tetrahydro-2H-pyran-4-ylmethyl)amino]phenyl}sulfonyl)benzamide]
FL5.12/Bcl-2 cells
  Selectivity Ratio (Platelet EC50/FL5.12/Bcl-2 EC50): >2000
GST-Bcl-2
  Binding selectivity ratio (Bcl-XL Ki/Bcl-2 Ki): 7117.6

## CN1CCN(CCCNc2ccc(S(=O)(=O)NC(=O)c3ccc(N4CCN(CC5=C(c6ccc(Cl)cc6)CC(C)(C)CC5)CC4)cc3Oc3ccc4[nH]ccc4c3)cc2[N+](=O)[O-])CC1 [Example 96, 4-(4-{[2-(4-chlorophenyl)-4,4-dimethylcyclohex-1-en-1-yl]methyl}piperazin-1-yl)-2-(1H-indol-5-yloxy)-N-[(4-{[3-(4-methylpiperazin-1-yl)propyl]amino}-3-nitrophenyl)sulfonyl]benzamide]
FL5.12/Bcl-2 cells
  Selectivity Ratio (Platelet EC50/FL5.12/Bcl-2 EC50): 2043
GST-Bcl-2
  Binding selectivity ratio (Bcl-XL Ki/Bcl-2 Ki): 186.8

## O=C(NS(=O)(=O)c1ccc(NCC2CCOCC2)c([N+](=O)[O-])c1)c1ccc(N2CCN(Cc3ccccc3-c3ccc(Cl)cc3)CC2)cc1Oc1ccc2c(c1)CCN2 [Example 140, 4-{4-[(4′-chloro-1,1′-biphenyl-2-yl)methyl]piperazin-1-yl}-2-(2,3-dihydro-1H-indol-5-yloxy)-N-({3-nitro-4-[(tetrahydro-2H-pyran-4-ylmethyl)amino]phenyl}sulfonyl)benzamide]
FL5.12/Bcl-2 cells
  Selectivity Ratio (Platelet EC50/FL5.12/Bcl-2 EC50): >23
GST-Bcl-2
  Binding selectivity ratio (Bcl-XL Ki/Bcl-2 Ki): >139.7

## CN(C)CCCOc1ccc(S(=O)(=O)NC(=O)c2ccc(N3CCN(Cc4ccccc4-c4ccc(Cl)cc4)CC3)cc2Oc2ccccc2)cc1[N+](=O)[O-] [Example 94, 4-{4-[(4′-chloro-1,1′-biphenyl-2-yl)methyl]piperazin-1-yl}-N-({4-[3-(dimethylamino)propoxy]-3-nitrophenyl}sulfonyl)-2-phenoxybenzamide]
FL5.12/Bcl-2 cells
  Selectivity Ratio (Platelet EC50/FL5.12/Bcl-2 EC50): 590
GST-Bcl-2
  Binding selectivity ratio (Bcl-XL Ki/Bcl-2 Ki): 33.1

## CN(C)CCCNc1ccc(S(=O)(=O)NC(=O)c2ccc(N3CCN(CC4=C(c5ccc(Cl)cc5)CCC(C)(C)C4)CC3)cc2Oc2cccc3[nH]ccc23)cc1[N+](=O)[O-] [Example 56, 4-(4-{[2-(4-chlorophenyl)-5,5-dimethylcyclohex-1-en-1-yl]methyl}piperazin-1-yl)-N-[(4-{[3-(dimethylamino)propyl]amino}-3-nitrophenyl)sulfonyl]-2-(1H-indol-4-yloxy)benzamide]
FL5.12/Bcl-2 cells
  Selectivity Ratio (Platelet EC50/FL5.12/Bcl-2 EC50): 554
GST-Bcl-2
  Binding selectivity ratio (Bcl-XL Ki/Bcl-2 Ki): 48.2

## CC1(C)CCC(CN2CCN(c3ccc(C(=O)NS(=O)(=O)c4ccc(NCCCN5CCCC5)c([N+](=O)[O-])c4)c(Oc4cccc5[nH]ccc45)c3)CC2)=C(c2ccc(OC(F)(F)F)cc2)C1 [Example 70, 4-[4-({4,4-dimethyl-2-[4-(trifluoromethoxy)phenyl]cyclohex-1-en-1-yl}methyl)piperazin-1-yl]-2-(1H-indol-4-yloxy)-N-({3-nitro-4-[(3-pyrrolidin-1-ylpropyl)amino]phenyl}sulfonyl)benzamide]
FL5.12/Bcl-2 cells
  Selectivity Ratio (Platelet EC50/FL5.12/Bcl-2 EC50): >450
GST-Bcl-2
  Binding selectivity ratio (Bcl-XL Ki/Bcl-2 Ki): 62.4

## CN1CCC(Nc2ccc(S(=O)(=O)NC(=O)c3ccc(N4CCN(CC5=C(c6ccc(Cl)cc6)CC(C)(C)CC5)CC4)cc3Oc3cccc4[nH]ccc34)cc2[N+](=O)[O-])CC1 [Example 103, 4-(4-{[2-(4-chlorophenyl)-4,4-dimethylcyclohex-1-en-1-yl]methyl}piperazin-1-yl)-2-(1H-indol-4-yloxy)-N-({4-[(1-methylpiperidin-4-yl)amino]-3-nitrophenyl}sulfonyl)benzamide]
FL5.12/Bcl-2 cells
  Selectivity Ratio (Platelet EC50/FL5.12/Bcl-2 EC50): 2305
GST-Bcl-2
  Binding selectivity ratio (Bcl-XL Ki/Bcl-2 Ki): 2096.1

## CC1(C)CCC(c2ccc(Cl)cc2)=C(CN2CCN(c3ccc(C(=O)NS(=O)(=O)c4ccc(NCCCN5CCOCC5)c([N+](=O)[O-])c4)c(Oc4cccc5[nH]ccc45)c3)CC2)C1 [Example 54, 4-(4-{[2-(4-chlorophenyl)-5,5-dimethylcyclohex-1-en-1-yl]methyl}piperazin-1-yl)-2-(1H-indol-4-yloxy)-N-({4-[(3-morpholin-4-ylpropyl)amino]-3-nitrophenyl}sulfonyl)benzamide]
FL5.12/Bcl-2 cells
  Selectivity Ratio (Platelet EC50/FL5.12/Bcl-2 EC50): >785
GST-Bcl-2
  Binding selectivity ratio (Bcl-XL Ki/Bcl-2 Ki): 108.3
